Test results from ChEMBL document CHEMBL1201862, “PubChem BioAssay data set” (2004).
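Step 1: Grow cells in 96-well plates. Step 2: Expose to compound for 48 hours at 5 concentrations. Step 3: Interpolate endpoints linearly; if unreached, use highest concentration. The concentration for 50% growth inhibition is given as GI50.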 Calls of active or inactive are those of the source. Cut-off read from the data, not from the text of the source: active = GI50 up to about 1.1 µM and inactive = higher.

Legend:
Test in all cases: inhibition of tumour cell growth, NCI panel, 48 h
ACHN = system: ACHN
KM-20L2 = system: KM-20L2
UO-31 = system: UO-31
HT-29 = system: HT-29
UACC-62 = system: UACC-62
SW-620 = system: SW-620
A549 = system: A549
M14 = system: M14
OVCAR-3 = system: OVCAR-3
NCI-H460 = system: NCI-H460
HCT-15 = system: HCT-15
HL-60 = system: HL-60
A498 = system: A498
OVCAR-4 = system: OVCAR-4
HOP-18 = system: HOP-18
NCI-H23 = system: NCI-H23
SNB-78 = system: SNB-78
KM12 = system: KM12
COLO 205 = system: COLO 205
UACC-257 = system: UACC-257
CAKI-1 = system: CAKI-1
SK-MEL-28 = system: SK-MEL-28
EKVX = system: EKVX
HOP-92 = system: HOP-92
M19-MEL = system: M19-MEL
NCI-H226 = system: NCI-H226
LXFL 529 = system: LXFL 529
HOP-62 = system: HOP-62
OVCAR-5 = system: OVCAR-5
HCC 2998 = system: HCC 2998
DMS-273 = system: DMS-273
SK-OV-3 = system: SK-OV-3
HCT-116 = system: HCT-116
SK-MEL-5 = system: SK-MEL-5
TK-10 = system: TK-10
RXF 393 = system: RXF 393
DLD-1 = system: DLD-1
RPMI-8226 = system: RPMI-8226
MOLT-4 = system: MOLT-4
LOX IMVI = system: LOX IMVI
SF-295 = system: SF-295
CCRF-CEM = system: CCRF-CEM
OVCAR-8 = system: OVCAR-8
SR = system: SR
SN12C = system: SN12C
Malme-3M = system: Malme-3M
SNB-75 = system: SNB-75
RXF 631 = system: RXF 631
U-251 = system: U-251
XF498 = system: XF498
SF-268 = system: SF-268
IGROV-1 = system: IGROV-1
SF-539 = system: SF-539
DMS-114 = system: DMS-114
786-0 = system: 786-0
SK-MEL-2 = system: SK-MEL-2
K562 = system: K562
NCI-H522 = system: NCI-H522
SNB-19 = system: SNB-19

## COC(=O)c1cc(-c2ccc(OC)c(OC)c2)oc1-c1ccc(OC)c(OC)c1
ACHN
  GI50: 35.2 µM (inactive)
KM-20L2
  GI50: 53.3 µM (inactive)
UO-31
  GI50: 35.6 µM (inactive)
HT-29
  GI50: 35.8 µM (inactive)
UACC-62
  GI50: 70.1 µM (inactive)
SW-620
  GI50: 45.3 µM (inactive)
A549
  GI50: 44 µM (inactive)
M14
  GI50: 55.8 µM (inactive)
OVCAR-3
  GI50: 42.5 µM (inactive)
NCI-H460
  GI50: 48.5 µM (inactive)
HCT-15
  GI50: 47.2 µM
HL-60
  GI50: 64.7 µM (inactive)
A498
  GI50: 18.7 µM (inactive)
OVCAR-4
  GI50: 62.5 µM (inactive)
HOP-18
  GI50: 29.2 µM (inactive)
NCI-H23
  GI50: 26.6 µM (inactive)
SNB-78
  GI50: 31.7 µM (inactive)
KM12
  GI50: 41.6 µM (inactive)
COLO 205
  GI50: 19.5 µM (inactive)
UACC-257
  GI50: 37.6 µM (inactive)
CAKI-1
  GI50: 54.7 µM (inactive)
SK-MEL-28
  GI50: 57.9 µM (inactive)
EKVX
  GI50: 52.4 µM (inactive)
HOP-92
  GI50: 13.4 µM (inactive)
M19-MEL
  GI50: 41.3 µM (inactive)
NCI-H226
  GI50: 34.3 µM (inactive)
LXFL 529
  GI50: 27.7 µM (inactive)
HOP-62
  GI50: 35.7 µM (inactive)
OVCAR-5
  GI50: 36.1 µM (inactive)
HCC 2998
  GI50: 81.8 µM (inactive)
DMS-273
  GI50: 67.1 µM (inactive)
SK-OV-3
  GI50: 38.9 µM (inactive)
HCT-116
  GI50: 32.4 µM (inactive)
SK-MEL-5
  GI50: > 10 µM (inactive)
TK-10
  GI50: 53.8 µM (inactive)
RXF 393
  GI50: 19.1 µM (inactive)
DLD-1
  GI50: 30.1 µM (inactive)
RPMI-8226
  GI50: 33.3 µM (inactive)
MOLT-4
  GI50: 32.7 µM (inactive)
LOX IMVI
  GI50: 28.1 µM (inactive)
SF-295
  GI50: 23.8 µM (inactive)
CCRF-CEM
  GI50: > 100 µM (inactive)
OVCAR-8
  GI50: 44.6 µM (inactive)
SR
  GI50: 28.6 µM (inactive)
SN12C
  GI50: 26.8 µM (inactive)
Malme-3M
  GI50: 43.7 µM (inactive)
SNB-75
  GI50: 33.5 µM (inactive)
RXF 631
  GI50: 30.5 µM (inactive)
U-251
  GI50: 30.6 µM (inactive)
XF498
  GI50: 37.3 µM (inactive)
SF-268
  GI50: 49.7 µM (inactive)
IGROV-1
  GI50: 45.5 µM (inactive)
SF-539
  GI50: 21.2 µM (inactive)
DMS-114
  GI50: 31.9 µM (inactive)
786-0
  GI50: 37.3 µM (inactive)
SK-MEL-2
  GI50: 44.9 µM (inactive)
K562
  GI50: 80.9 µM (inactive)

## CCC(O)CCCCCCCCCCCCCCC(=O)O (stereo not given)
ACHN
  GI50: > 100 µM (inactive)
UO-31
  GI50: > 100 µM (inactive)
HT-29
  GI50: 40.8 µM (inactive)
UACC-62
  GI50: > 100 µM (inactive)
SW-620
  GI50: > 100 µM (inactive)
A549
  GI50: > 100 µM (inactive)
M14
  GI50: > 100 µM (inactive)
OVCAR-3
  GI50: > 100 µM (inactive)
NCI-H460
  GI50: > 100 µM (inactive)
HL-60
  GI50: 24.8 µM (inactive)
A498
  GI50: > 100 µM (inactive)
OVCAR-4
  GI50: > 100 µM (inactive)
HOP-18
  GI50: > 100 µM (inactive)
NCI-H23
  GI50: > 100 µM (inactive)
NCI-H522
  GI50: > 100 µM (inactive)
SNB-78
  GI50: > 100 µM (inactive)
KM12
  GI50: 61.8 µM (inactive)
COLO 205
  GI50: > 100 µM (inactive)
UACC-257
  GI50: > 100 µM (inactive)
CAKI-1
  GI50: > 100 µM (inactive)
SK-MEL-28
  GI50: > 100 µM (inactive)
EKVX
  GI50: > 100 µM (inactive)
HOP-92
  GI50: > 100 µM (inactive)
SNB-19
  GI50: > 100 µM (inactive)
M19-MEL
  GI50: > 100 µM (inactive)
NCI-H226
  GI50: > 100 µM (inactive)
LXFL 529
  GI50: > 100 µM (inactive)
HOP-62
  GI50: > 100 µM (inactive)
OVCAR-5
  GI50: > 100 µM (inactive)
DMS-273
  GI50: > 100 µM (inactive)
SK-OV-3
  GI50: > 100 µM (inactive)
HCT-116
  GI50: > 100 µM (inactive)
SK-MEL-5
  GI50: 18.8 µM (inactive)
TK-10
  GI50: > 100 µM (inactive)
RXF 393
  GI50: > 100 µM (inactive)
DLD-1
  GI50: > 100 µM (inactive)
RPMI-8226
  GI50: 66.8 µM (inactive)
MOLT-4
  GI50: 44.3 µM (inactive)
LOX IMVI
  GI50: > 10 µM (inactive)
SF-295
  GI50: > 100 µM (inactive)
CCRF-CEM
  GI50: > 100 µM (inactive)
OVCAR-8
  GI50: > 100 µM (inactive)
SR
  GI50: 49.9 µM (inactive)
SN12C
  GI50: > 100 µM (inactive)
Malme-3M
  GI50: > 100 µM (inactive)
SNB-75
  GI50: > 100 µM (inactive)
RXF 631
  GI50: 78.3 µM (inactive)
U-251
  GI50: > 100 µM (inactive)
XF498
  GI50: > 100 µM (inactive)
SF-268
  GI50: > 100 µM (inactive)
IGROV-1
  GI50: > 100 µM (inactive)
SF-539
  GI50: > 100 µM (inactive)
DMS-114
  GI50: > 100 µM (inactive)
786-0
  GI50: 84.9 µM (inactive)
SK-MEL-2
  GI50: > 100 µM (inactive)
K562
  GI50: > 100 µM (inactive)

## Cc1ccc(NC(=O)CC/C(CC(=O)C(C)(C)C)=N/Nc2nnc(C)n2N)cc1C
ACHN
  GI50: > 100 µM (inactive)
KM-20L2
  GI50: > 100 µM (inactive)
UO-31
  GI50: > 100 µM (inactive)
HT-29
  GI50: > 100 µM (inactive)
UACC-62
  GI50: > 100 µM (inactive)
SW-620
  GI50: > 100 µM (inactive)
A549
  GI50: > 100 µM (inactive)
M14
  GI50: > 100 µM (inactive)
OVCAR-3
  GI50: > 100 µM (inactive)
NCI-H460
  GI50: > 100 µM (inactive)
HCT-15
  GI50: > 100 µM
HL-60
  GI50: > 100 µM (inactive)
A498
  GI50: > 100 µM (inactive)
HOP-18
  GI50: > 100 µM (inactive)
NCI-H23
  GI50: > 100 µM (inactive)
NCI-H522
  GI50: > 100 µM (inactive)
SNB-78
  GI50: > 100 µM (inactive)
KM12
  GI50: 84.9 µM (inactive)
COLO 205
  GI50: > 100 µM (inactive)
UACC-257
  GI50: > 100 µM (inactive)
CAKI-1
  GI50: > 100 µM (inactive)
SK-MEL-28
  GI50: > 100 µM (inactive)
EKVX
  GI50: 30.8 µM (inactive)
HOP-92
  GI50: > 100 µM (inactive)
SNB-19
  GI50: > 100 µM (inactive)
M19-MEL
  GI50: > 100 µM (inactive)
NCI-H226
  GI50: > 100 µM (inactive)
LXFL 529
  GI50: > 100 µM (inactive)
HOP-62
  GI50: > 100 µM (inactive)
OVCAR-5
  GI50: > 100 µM (inactive)
HCC 2998
  GI50: > 100 µM (inactive)
DMS-273
  GI50: 95.1 µM (inactive)
SK-OV-3
  GI50: > 100 µM (inactive)
HCT-116
  GI50: > 100 µM (inactive)
SK-MEL-5
  GI50: > 100 µM (inactive)
TK-10
  GI50: > 100 µM (inactive)
RXF 393
  GI50: > 100 µM (inactive)
RPMI-8226
  GI50: > 100 µM (inactive)
MOLT-4
  GI50: 66.5 µM (inactive)
LOX IMVI
  GI50: > 100 µM (inactive)
SF-295
  GI50: > 100 µM (inactive)
CCRF-CEM
  GI50: 65 µM (inactive)
OVCAR-8
  GI50: > 100 µM (inactive)
SR
  GI50: 94.8 µM (inactive)
SN12C
  GI50: > 100 µM (inactive)
Malme-3M
  GI50: > 100 µM (inactive)
SNB-75
  GI50: > 100 µM (inactive)
RXF 631
  GI50: > 100 µM (inactive)
U-251
  GI50: > 100 µM (inactive)
XF498
  GI50: > 100 µM (inactive)
SF-268
  GI50: > 100 µM (inactive)
IGROV-1
  GI50: > 100 µM (inactive)
SF-539
  GI50: > 100 µM (inactive)
DMS-114
  GI50: 62.2 µM (inactive)
786-0
  GI50: > 100 µM (inactive)
SK-MEL-2
  GI50: > 100 µM (inactive)
K562
  GI50: 43 µM (inactive)
